According to publication PMC12621043, “Un-LOK-ing a New Approach for Conformational Selective Targeting of STK10 (LOK)” (ACS Medicinal Chemistry Letters, 2025):

biological target: T1, BMP2KA (Homo sapiens, UniProt Q9NSY1); assay: DSF Tm panel; type: binding; settings: 10 μM compound
T1 construct: purchased in-house DSF kinase panel (SGC-style construct names; the trailing letter is the construct ID)
T1 sequence (Q9NSY1 38-345): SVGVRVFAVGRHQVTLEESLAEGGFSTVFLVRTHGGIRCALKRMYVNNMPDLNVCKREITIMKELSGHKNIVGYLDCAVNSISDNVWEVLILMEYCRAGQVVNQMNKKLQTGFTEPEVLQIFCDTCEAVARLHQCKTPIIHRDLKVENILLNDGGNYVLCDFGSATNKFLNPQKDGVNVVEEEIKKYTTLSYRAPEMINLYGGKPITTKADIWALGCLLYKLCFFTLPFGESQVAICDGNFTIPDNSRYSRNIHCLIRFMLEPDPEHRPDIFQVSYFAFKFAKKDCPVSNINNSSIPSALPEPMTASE

| Structure (SMILES) | ΔTm at 10 µM |
| --- | --- |
| O=C(NCc1ccc(Cl)cc1F)Nc1ccc2cc1OCCOCCNc1ccn3ncc-2c3n1 [compound 21] | 7.5 °C |
| Cc1cc(Cl)ccc1CNC(=O)Nc1ccc2cc1OCCOCCNc1ccn3ncc-2c3n1 [compound 23] | 5.9 °C |
| Cc1cc(Br)ccc1CNC(=O)Nc1ccc2cc1OCCOCCNc1ccn3ncc-2c3n1 [compound 24] | 6.7 °C |

biological target: T2, AAK1 (AAK1A) (Homo sapiens, UniProt Q2M2I8); assay: DSF Tm panel; type: binding; settings: 10 μM compound
T2 construct: purchased in-house DSF kinase panel (SGC-style construct names; the trailing letter is the construct ID)
T2 sequence (Q2M2I8 27-365): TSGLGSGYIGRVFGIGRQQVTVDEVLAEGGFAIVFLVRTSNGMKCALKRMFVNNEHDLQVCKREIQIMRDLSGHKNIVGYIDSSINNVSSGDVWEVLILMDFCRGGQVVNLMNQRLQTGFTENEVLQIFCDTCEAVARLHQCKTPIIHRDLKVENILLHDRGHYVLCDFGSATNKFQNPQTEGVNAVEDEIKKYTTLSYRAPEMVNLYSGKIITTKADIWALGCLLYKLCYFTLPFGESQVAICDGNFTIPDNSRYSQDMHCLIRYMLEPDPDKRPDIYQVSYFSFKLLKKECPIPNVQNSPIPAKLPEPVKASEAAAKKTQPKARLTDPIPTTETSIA

| Structure (SMILES) | ΔTm at 10 µM |
| --- | --- |
| O=C(NCc1ccc(Cl)cc1F)Nc1ccc2cc1OCCOCCNc1ccn3ncc-2c3n1 [compound 21] | 7.1 °C |
| Cc1cc(Cl)ccc1CNC(=O)Nc1ccc2cc1OCCOCCNc1ccn3ncc-2c3n1 [compound 23] | 6.5 °C |
| Cc1cc(Br)ccc1CNC(=O)Nc1ccc2cc1OCCOCCNc1ccn3ncc-2c3n1 [compound 24] | 4 °C |

biological target: T3, STK3 (STK3A) (Homo sapiens, UniProt Q13188); assay: DSF Tm panel; type: binding; settings: 10 μM compound
T3 construct: purchased in-house DSF kinase panel (SGC-style construct names; the trailing letter is the construct ID)
T3 sequence (Q13188 16-313): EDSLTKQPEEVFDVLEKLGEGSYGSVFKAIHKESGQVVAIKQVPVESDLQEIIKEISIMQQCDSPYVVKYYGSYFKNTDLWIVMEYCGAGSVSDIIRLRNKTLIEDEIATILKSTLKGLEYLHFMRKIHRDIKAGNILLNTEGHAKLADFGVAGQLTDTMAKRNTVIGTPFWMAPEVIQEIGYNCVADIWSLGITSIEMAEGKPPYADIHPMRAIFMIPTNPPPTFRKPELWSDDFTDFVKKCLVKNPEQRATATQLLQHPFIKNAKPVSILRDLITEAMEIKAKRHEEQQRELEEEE

| Structure (SMILES) | ΔTm at 10 µM |
| --- | --- |
| O=C(NCc1ccc(Cl)cc1F)Nc1ccc2cc1OCCOCCNc1ccn3ncc-2c3n1 [compound 21] | 6.9 °C |
| Cc1cc(Cl)ccc1CNC(=O)Nc1ccc2cc1OCCOCCNc1ccn3ncc-2c3n1 [compound 23] | 9.1 °C |
| Cc1cc(Br)ccc1CNC(=O)Nc1ccc2cc1OCCOCCNc1ccn3ncc-2c3n1 [compound 24] | 3.8 °C |

biological target: T4, STK4 (STK4A) (Homo sapiens, UniProt Q13043); assay: DSF Tm panel; type: binding; settings: 10 μM compound
T4 construct: purchased in-house DSF kinase panel (SGC-style construct names; the trailing letter is the construct ID)
T4 sequence (Q13043 1-311): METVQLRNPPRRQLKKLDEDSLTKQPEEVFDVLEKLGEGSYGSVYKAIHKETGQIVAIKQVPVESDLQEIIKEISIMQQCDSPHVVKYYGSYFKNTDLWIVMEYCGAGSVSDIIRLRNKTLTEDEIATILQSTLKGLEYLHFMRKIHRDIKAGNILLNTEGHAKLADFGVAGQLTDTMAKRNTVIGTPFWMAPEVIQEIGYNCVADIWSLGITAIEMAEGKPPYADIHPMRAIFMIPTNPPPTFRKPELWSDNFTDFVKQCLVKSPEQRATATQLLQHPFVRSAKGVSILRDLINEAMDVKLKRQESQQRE

| Structure (SMILES) | ΔTm at 10 µM |
| --- | --- |
| O=C(NCc1ccc(Cl)cc1F)Nc1ccc2cc1OCCOCCNc1ccn3ncc-2c3n1 [compound 21] | 4.9 °C |
| Cc1cc(Cl)ccc1CNC(=O)Nc1ccc2cc1OCCOCCNc1ccn3ncc-2c3n1 [compound 23] | 7.4 °C |
| Cc1cc(Br)ccc1CNC(=O)Nc1ccc2cc1OCCOCCNc1ccn3ncc-2c3n1 [compound 24] | 2.8 °C |

biological target: T5, DYRK1AA (Homo sapiens, UniProt Q13627); assay: DSF Tm panel; type: binding; settings: 10 μM compound
T5 construct: purchased in-house DSF kinase panel (SGC-style construct names; the trailing letter is the construct ID)

| Structure (SMILES) | ΔTm at 10 µM |
| --- | --- |
| O=C(NCc1ccc(Cl)cc1F)Nc1ccc2cc1OCCOCCNc1ccn3ncc-2c3n1 [compound 21] | 0.7 °C |
| Cc1cc(Cl)ccc1CNC(=O)Nc1ccc2cc1OCCOCCNc1ccn3ncc-2c3n1 [compound 23] | 2.6 °C |
| Cc1cc(Br)ccc1CNC(=O)Nc1ccc2cc1OCCOCCNc1ccn3ncc-2c3n1 [compound 24] | 0.4 °C |

biological target: T6, MELKA (Homo sapiens, UniProt Q14680); assay: DSF Tm panel; type: binding; settings: 10 μM compound
T6 construct: purchased in-house DSF kinase panel (SGC-style construct names; the trailing letter is the construct ID)
T6 sequence (Q14680 1-340): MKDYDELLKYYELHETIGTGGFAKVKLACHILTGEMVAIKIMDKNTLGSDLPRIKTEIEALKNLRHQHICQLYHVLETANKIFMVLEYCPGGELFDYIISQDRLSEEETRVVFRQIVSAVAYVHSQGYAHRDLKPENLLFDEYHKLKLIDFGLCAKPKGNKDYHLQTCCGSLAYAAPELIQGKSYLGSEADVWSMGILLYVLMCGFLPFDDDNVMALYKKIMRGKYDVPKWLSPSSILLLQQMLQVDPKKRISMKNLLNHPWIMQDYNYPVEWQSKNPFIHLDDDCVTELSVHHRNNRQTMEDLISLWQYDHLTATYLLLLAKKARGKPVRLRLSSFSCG

| Structure (SMILES) | ΔTm at 10 µM |
| --- | --- |
| O=C(NCc1ccc(Cl)cc1F)Nc1ccc2cc1OCCOCCNc1ccn3ncc-2c3n1 [compound 21] | 2.4 °C |
| Cc1cc(Cl)ccc1CNC(=O)Nc1ccc2cc1OCCOCCNc1ccn3ncc-2c3n1 [compound 23] | 1.1 °C |
| Cc1cc(Br)ccc1CNC(=O)Nc1ccc2cc1OCCOCCNc1ccn3ncc-2c3n1 [compound 24] | 0 °C |

system: RPS6KA1A; assay: DSF Tm panel; type: binding; settings: 10 μM compound

| Structure (SMILES) | ΔTm RPS6KA1A |
| --- | --- |
| O=C(NCc1ccc(Cl)cc1F)Nc1ccc2cc1OCCOCCNc1ccn3ncc-2c3n1 [compound 21] | 1,1 °C |
| Cc1cc(Cl)ccc1CNC(=O)Nc1ccc2cc1OCCOCCNc1ccn3ncc-2c3n1 [compound 23] | 0,8 °C |
| Cc1cc(Br)ccc1CNC(=O)Nc1ccc2cc1OCCOCCNc1ccn3ncc-2c3n1 [compound 24] | 0,1 °C |

biological target: T7, EPHA2 (EPHA2A) (Homo sapiens, UniProt P29317); assay: DSF Tm panel; type: binding; settings: 10 μM compound
T7 construct: purchased in-house DSF kinase panel (SGC-style construct names; the trailing letter is the construct ID)
T7 sequence (P29317 596-900): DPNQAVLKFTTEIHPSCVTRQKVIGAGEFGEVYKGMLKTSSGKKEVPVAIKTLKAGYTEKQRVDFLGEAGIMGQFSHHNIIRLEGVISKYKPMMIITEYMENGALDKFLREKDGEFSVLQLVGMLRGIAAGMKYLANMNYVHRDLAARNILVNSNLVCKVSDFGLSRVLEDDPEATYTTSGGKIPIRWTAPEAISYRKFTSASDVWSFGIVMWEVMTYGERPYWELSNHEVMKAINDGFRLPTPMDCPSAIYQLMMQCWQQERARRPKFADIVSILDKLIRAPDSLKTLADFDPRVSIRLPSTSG

| Structure (SMILES) | ΔTm at 10 µM |
| --- | --- |
| O=C(NCc1ccc(Cl)cc1F)Nc1ccc2cc1OCCOCCNc1ccn3ncc-2c3n1 [compound 21] | 0.5 °C |
| Cc1cc(Cl)ccc1CNC(=O)Nc1ccc2cc1OCCOCCNc1ccn3ncc-2c3n1 [compound 23] | 0.5 °C |
| Cc1cc(Br)ccc1CNC(=O)Nc1ccc2cc1OCCOCCNc1ccn3ncc-2c3n1 [compound 24] | 0.2 °C |

biological target: T8, NEK1A (Homo sapiens, UniProt Q96PY6); assay: DSF Tm panel; type: binding; settings: 10 μM compound
T8 construct: purchased in-house DSF kinase panel (SGC-style construct names; the trailing letter is the construct ID)
T8 sequence (Q96PY6 1-328): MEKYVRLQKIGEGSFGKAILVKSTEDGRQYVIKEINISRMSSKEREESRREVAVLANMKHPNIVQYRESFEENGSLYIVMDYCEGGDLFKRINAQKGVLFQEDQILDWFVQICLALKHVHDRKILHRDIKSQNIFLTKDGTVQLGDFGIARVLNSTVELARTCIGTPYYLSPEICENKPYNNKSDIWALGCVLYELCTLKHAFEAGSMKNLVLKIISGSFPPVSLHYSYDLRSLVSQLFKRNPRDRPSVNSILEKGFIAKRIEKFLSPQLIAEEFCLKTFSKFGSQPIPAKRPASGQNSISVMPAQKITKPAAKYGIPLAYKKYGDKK

| Structure (SMILES) | ΔTm at 10 µM |
| --- | --- |
| O=C(NCc1ccc(Cl)cc1F)Nc1ccc2cc1OCCOCCNc1ccn3ncc-2c3n1 [compound 21] | 0.7 °C |
| Cc1cc(Cl)ccc1CNC(=O)Nc1ccc2cc1OCCOCCNc1ccn3ncc-2c3n1 [compound 23] | 0.9 °C |
| Cc1cc(Br)ccc1CNC(=O)Nc1ccc2cc1OCCOCCNc1ccn3ncc-2c3n1 [compound 24] | -0.4 °C |

biological target: T9, MAPK13A (Homo sapiens, UniProt O15264); assay: DSF Tm panel; type: binding; settings: 10 μM compound
T9 construct: purchased in-house DSF kinase panel (SGC-style construct names; the trailing letter is the construct ID)
T9 sequence (O15264 1-365): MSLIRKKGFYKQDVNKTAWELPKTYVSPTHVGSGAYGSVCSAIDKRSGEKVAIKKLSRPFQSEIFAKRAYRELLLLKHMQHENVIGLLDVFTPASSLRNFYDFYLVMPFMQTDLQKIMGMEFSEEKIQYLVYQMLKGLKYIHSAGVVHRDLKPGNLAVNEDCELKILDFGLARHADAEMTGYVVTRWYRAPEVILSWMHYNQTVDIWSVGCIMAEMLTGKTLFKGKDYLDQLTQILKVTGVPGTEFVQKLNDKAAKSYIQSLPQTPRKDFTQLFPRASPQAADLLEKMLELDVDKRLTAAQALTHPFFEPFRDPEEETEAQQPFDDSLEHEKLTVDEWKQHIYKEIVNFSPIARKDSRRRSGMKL

| Structure (SMILES) | ΔTm at 10 µM |
| --- | --- |
| O=C(NCc1ccc(Cl)cc1F)Nc1ccc2cc1OCCOCCNc1ccn3ncc-2c3n1 [compound 21] | 0.6 °C |
| Cc1cc(Cl)ccc1CNC(=O)Nc1ccc2cc1OCCOCCNc1ccn3ncc-2c3n1 [compound 23] | 0.3 °C |
| Cc1cc(Br)ccc1CNC(=O)Nc1ccc2cc1OCCOCCNc1ccn3ncc-2c3n1 [compound 24] | -0.4 °C |

biological target: T10, CDKL1A (Homo sapiens, UniProt Q00532); assay: DSF Tm panel; type: binding; settings: 10 μM compound
T10 construct: purchased in-house DSF kinase panel (SGC-style construct names; the trailing letter is the construct ID)
T10 sequence (Q00532 1-303): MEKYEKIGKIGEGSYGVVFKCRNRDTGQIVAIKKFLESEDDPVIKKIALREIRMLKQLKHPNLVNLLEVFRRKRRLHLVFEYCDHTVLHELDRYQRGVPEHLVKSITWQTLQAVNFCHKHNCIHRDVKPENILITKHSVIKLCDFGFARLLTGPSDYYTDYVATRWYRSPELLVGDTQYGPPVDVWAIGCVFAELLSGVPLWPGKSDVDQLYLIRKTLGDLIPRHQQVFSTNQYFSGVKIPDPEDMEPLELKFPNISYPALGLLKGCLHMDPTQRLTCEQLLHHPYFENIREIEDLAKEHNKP

| Structure (SMILES) | ΔTm at 10 µM |
| --- | --- |
| O=C(NCc1ccc(Cl)cc1F)Nc1ccc2cc1OCCOCCNc1ccn3ncc-2c3n1 [compound 21] | 0 °C |
| Cc1cc(Cl)ccc1CNC(=O)Nc1ccc2cc1OCCOCCNc1ccn3ncc-2c3n1 [compound 23] | 0.4 °C |
| Cc1cc(Br)ccc1CNC(=O)Nc1ccc2cc1OCCOCCNc1ccn3ncc-2c3n1 [compound 24] | 0.5 °C |

system: CDC42BPAA; assay: DSF Tm panel; type: binding; settings: 10 μM compound

| Structure (SMILES) | ΔTm CDC42BPAA |
| --- | --- |
| O=C(NCc1ccc(Cl)cc1F)Nc1ccc2cc1OCCOCCNc1ccn3ncc-2c3n1 [compound 21] | 0,4 °C |
| Cc1cc(Cl)ccc1CNC(=O)Nc1ccc2cc1OCCOCCNc1ccn3ncc-2c3n1 [compound 23] | 0,6 °C |
| Cc1cc(Br)ccc1CNC(=O)Nc1ccc2cc1OCCOCCNc1ccn3ncc-2c3n1 [compound 24] | 0,7 °C |

biological target: T11, VRK1A (Homo sapiens, UniProt Q99986); assay: DSF Tm panel; type: binding; settings: 10 μM compound
T11 construct: purchased in-house DSF kinase panel (SGC-style construct names; the trailing letter is the construct ID)
T11 sequence (Q99986 1-396): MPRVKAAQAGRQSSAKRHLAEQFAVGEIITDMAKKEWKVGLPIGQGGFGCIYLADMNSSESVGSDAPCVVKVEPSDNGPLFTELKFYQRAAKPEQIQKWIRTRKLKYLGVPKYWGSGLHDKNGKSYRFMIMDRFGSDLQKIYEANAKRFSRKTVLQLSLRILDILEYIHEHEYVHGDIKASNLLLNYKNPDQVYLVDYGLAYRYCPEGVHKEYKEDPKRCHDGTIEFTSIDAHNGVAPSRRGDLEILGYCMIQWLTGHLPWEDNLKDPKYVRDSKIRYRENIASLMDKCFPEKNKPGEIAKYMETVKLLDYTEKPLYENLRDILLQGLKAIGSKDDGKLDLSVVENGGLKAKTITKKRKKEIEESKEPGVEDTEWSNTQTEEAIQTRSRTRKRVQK

| Structure (SMILES) | ΔTm at 10 µM |
| --- | --- |
| O=C(NCc1ccc(Cl)cc1F)Nc1ccc2cc1OCCOCCNc1ccn3ncc-2c3n1 [compound 21] | 0.9 °C |
| Cc1cc(Cl)ccc1CNC(=O)Nc1ccc2cc1OCCOCCNc1ccn3ncc-2c3n1 [compound 23] | 0.8 °C |
| Cc1cc(Br)ccc1CNC(=O)Nc1ccc2cc1OCCOCCNc1ccn3ncc-2c3n1 [compound 24] | 1 °C |

biological target: T12, SLK (Homo sapiens, UniProt Q9H2G2); assay: PhosphoSens in vitro activity assay; type: biochemical; settings: ATP 150 μM

| Structure (SMILES) | IC50 |
| --- | --- |
| O=C(NCc1ccc(Cl)cc1F)Nc1ccc2cc1OCCOCCNc1ccn3ncc-2c3n1 [compound 21] | 8.88 ± 1.41 µM |
| Cc1cc(Cl)ccc1CNC(=O)Nc1ccc2cc1OCCOCCNc1ccn3ncc-2c3n1 [compound 23] | 3.43 ± 1.12 µM |
| Cc1cc(Br)ccc1CNC(=O)Nc1ccc2cc1OCCOCCNc1ccn3ncc-2c3n1 [compound 24] | 5.35 ± 1.36 µM |

biological target: T12, SLK; assay: NanoBRET target engagement assay; type: cell-based; set-up: has a greater impact on the full-length protein than on the kinase domains; host or cells: HEK293T (ATCC CRL-3216); settings: HEK293T cells

| Structure (SMILES) | EC50 |
| --- | --- |
| O=C(NCc1ccc(Cl)cc1F)Nc1ccc2cc1OCCOCCNc1ccn3ncc-2c3n1 [compound 21] | > 50 µM |
| Cc1cc(Cl)ccc1CNC(=O)Nc1ccc2cc1OCCOCCNc1ccn3ncc-2c3n1 [compound 23] | > 50 µM |
| Cc1cc(Br)ccc1CNC(=O)Nc1ccc2cc1OCCOCCNc1ccn3ncc-2c3n1 [compound 24] | > 50 µM |
